# Results from US20240108662A1, “ENGINEERED CELLS FUNCTIONALIZED WITH IMMUNE CHECKPOINT MOLECULES AND USES THEREOF” (The University of North Carolina at Chapel Hill, priority 2020, published 2024).
# Tests used:
# Assay type in all cases: cell-based, mouse
# MOLs = test: MTS viability assay, MOLs
# Procedure: (§1) In vitro toxicity of Ac4ManNAz and LEF, and viabilities of functionalized MSCs and MOLs: In vitro toxicities of Ac4ManNAz and LEF against MSCs and MOLs, and the viabilities of functionalized MSCs and MOLs were quantified by MTS assay. Briefly, treated/functionalized cells were cultured in complete media for 4 days. The phenol-red media was replaced by phenol red-free DMEM (supplemented with 10% FBS) before quantifying the viabilities via MTS assay according to the manufacturer's protocol. The MSCs were seeded at a density of 2×10^4 cells per well and the MOLs were seeded at a density of 1×10^4 cells per well in a 96-well plate.
# [1] = tested on: 2D2 cells (MOG-specific CD4+ T cells); test: PD-1 and CTLA-4 expressions of myelin-specific 2D2 cells after co-culture (FACS); conditions: E:T 10:1, 48 h
# Procedure: Myelin-specific CD4 T cell in vitro activation: Mouse IFN-γ and mouse IL-17A secreted from the activated myelin-specific 2D2 cells were quantified by ELISA assays as previously reported^56. […] The cell culture media (contain mainly the 2D2 cells) were preserved. 2D2 cells were collected from the cultured media via centrifugation at 1,000 g for 10 min. The moue IFN-γ and mouse IL-17A concentrations in the supernatants were quantified via mouse IFN-γ ELISA kit (ab100689; Abcam, Cambridge, MA) and mouse IL-17A ELISA kit (ab199081; Abcam, Cambridge, MA), according to manufacturer's instructions. […] MIH4, catalog number: 53-9969-42, Invitrogen), PE-labeled anti-mouse CTLA-4 antibody (clone: […] Stained cells were fixed with 4% paraformaldehyde (4% PFA; Sigma) and kept in dark at 4° C. before further FACS study.
# MSCs = test: MTS viability assay, MSCs
# Procedure: as §1
smiles,measurement,setting,value
"Cc1oncc1C(=O)Nc1ccc(C(F)(F)F)cc1 [small-molecule LEF, Leflunomide]",in vitro toxicity against MOLs,MOLs,insignificant toxicity
same,upregulation of PD-1 and CTLA-4 in co-cultured 2D2 cells,[1],increased the expression of CTLA-4 in the co-cultured 2D2 cells
same,in vitro toxicity against MSCs,MSCs,moderate in vitro toxicity
